Earlier results as cited in patent US20230255891A1, “Highly Compactable and Durable Direct Compression Excipients and Excipient Systems” (SPI Pharma, Inc., priority 2009, published 2023).

Tests used:
[1] = in water at 25
[2] = for 80° C. Solubility Kilos/100 Kilo solution: spray liquid temperature; for solubility in water: at 80 C in solution

OC[C@@H](O)[C@@H](O)CO [Erythritol]
Solubility At 25 (g/100 g H2O) [1]: 61 g/100 g H2O

O=C(CO)[C@@H](O)[C@H](O)[C@H](O)CO [Fructose]
Solubility At 25 (g/100 g H2O) [1]: 400 g/100 g H2O

OCC(O)CO [Glycerin]
Solubility At 25 (g/100 g H2O) [1]: Soluble

OC[C@@H](O)[C@@H](O[C@@H]1O[C@H](CO)[C@H](O)[C@H](O)[C@H]1O)[C@H](O)[C@@H](O)CO [Lactitol Monohydrate]
Solubility At 25 (g/100 g H2O) [1]: 140 g/100 g H2O

OC[C@@H](O)[C@@H](O[C@@H]1O[C@H](CO)[C@H](O)[C@H](O)[C@H]1O)[C@H](O)[C@@H](O)CO [Lactitol]
80° C. Solubility Kilos/100 Kilo solution [2]: 82 Kilos/100 Kilo solution

OC[C@@H](O)[C@@H](O[C@H]1O[C@@H](CO)[C@@H](O)[C@@H](O)[C@H]1O)[C@H](O)[C@@H](O)CO [Maltitol]
Solubility At 25 (g/100 g H2O) [1]: 175 g/100 g H2O
80° C. Solubility Kilos/100 Kilo solution [2]: 80.5 Kilos/100 Kilo solution
solubility in water [2]: about 80%

OC[C@@H](O)[C@@H](O)[C@H](O)[C@H](O)CO [Mannitol]
Solubility At 25 (g/100 g H2O) [1]: 22 g/100 g H2O
80° C. Solubility Kilos/100 Kilo solution [2]: 47.3 Kilos/100 Kilo solution
solubility in water [2]: about 47%

OC[C@@H](O)[C@@H](O)[C@H](O)[C@@H](O)CO [Sorbitol]
Solubility At 25 (g/100 g H2O) [1]: 235 g/100 g H2O
80° C. Solubility Kilos/100 Kilo solution [2]: 92 Kilos/100 Kilo solution
solubility in water [2]: about 92%

OC[C@H]1O[C@@](CO)(O[C@H]2O[C@H](CO)[C@@H](O)[C@H](O)[C@H]2O)[C@@H](O)[C@@H]1O [Sucrose]
Solubility At 25 (g/100 g H2O) [1]: 185 g/100 g H2O

OC[C@@H](O)[C@H](O)[C@@H](O)CO [Xylitol]
Solubility At 25 (g/100 g H2O) [1]: 200 g/100 g H2O

Anhydrous Isomalt
Solubility At 25 (g/100 g H2O) [1]: 39 g/100 g H2O

Isomalt
80° C. Solubility Kilos/100 Kilo solution [2]: 71 Kilos/100 Kilo solution
